Assay results taken from US9822108B2, “Antimicrobial agents” (RUTGERS, THE STATE UNIVERSITY OF NEW JERSEY, priority 2012, dated 2017).
≈ marks a conversion by molar mass, not a printed value.

Columns and labels:
[1] = test system: methicillin-resistant Staphylococcus aureus (MRSA); test: Antibacterial assay (Test C, broth microdilution MIC) against MRSA; format: cell-based; settings: minimal inhibitory concentration, 37° C., growth read after 24 to 48 hours at OD 600 nm, read-out: MRSA (MIC ug/ml)
Description: (§1) Test C. Antibacterial Assay.
(§2) Antibacterial activity can be determined as per Clinical and Laboratory Standards Institute (CLSI) guidelines using a broth microdilution assay in which log-phase bacteria are grown at 37° C. in appropriate medium containing two-fold serial dilutions of a compound to yield final concentrations ranging from 256 to 0.06 μg/mL. For determination of minimal inhibitory concentration (MIC) values, bacterial growth is monitored after 24 to 48 hours by measuring optical density at 600 nm.
(§3) Using a procedure similar to Test C, representative compounds of the invention were tested against methicillin-susceptible Staphylococcus aureus (MSSA) and methicillin-resistant Staphylococcus aureus (MRSA).

[2] = test system: methicillin-susceptible Staphylococcus aureus (MSSA); test: Antibacterial assay (Test C, broth microdilution MIC) against MSSA; format: cell-based; settings: minimal inhibitory concentration, 37° C., growth read after 24 to 48 hours at OD 600 nm, read-out: MSSA (MIC ug/ml)
Description: as §1, §2, §3

SMILES	MIC [1] [µg/mL]	MIC [2] [µg/mL]
C[n+]1cc(-c2ccccc2)nc2ccccc21 [Example 1]	8	2
C[n+]1cc(-c2cccc(F)c2)nc2ccccc21 [Example 2]	4	2
C[n+]1cc(-c2cccc(-c3ccccc3)c2)nc2ccccc21 [Example 3]	0.25	0.25
C[n+]1cc(-c2cccc(C(C)(C)C)c2)nc2ccccc21 [Example 4]	1	0.5
C[n+]1cc(-c2ccc(C(C)(C)C)cc2)nc2ccccc21 [Example 5]	1	0.5
COC(=O)c1cc(-c2ccc(C(C)(C)C)cc2)cc(-c2c[n+](C)c3ccccc3n2)c1 [Example 6]	1	0.5
C[n+]1cc(-c2cc(C(N)=O)cc(-c3ccc(C(C)(C)C)cc3)c2)nc2ccccc21 [Example 7]	2	2
C[n+]1cc(-c2cc(C(=O)NCCO)cc(-c3ccc(C(C)(C)C)cc3)c2)nc2ccccc21 [Example 8]	4	4
CC(C)(C)c1ccc(-c2cc(C(=O)NCCN)cc(-c3cnc4ccccc4n3)c2)cc1 [Example 9]	4 (≈ 9.42 µM)	4 (≈ 9.42 µM)
CC(C)(C)c1ccc(-c2cnc3c(CNC(=N)N)cccc3n2)cc1 [Example 10]	2 (≈ 6 µM)	2 (≈ 6 µM)
CC(C)(C)c1cccc(-c2cnc3c(CNC(=N)N)cccc3n2)c1 [Example 11]	2 (≈ 6 µM)	1 (≈ 3 µM)
CC(C)(C)c1ccc(-c2ncnc3c(CNC(=N)N)cccc23)cc1 [Example 12]	4 (≈ 12 µM)	2 (≈ 6 µM)
CC(=N)NCc1cccc2c(-c3ccc(C(C)(C)C)cc3)ncnc12 [Example 13]	64 (≈ 193 µM)	32 (≈ 96.3 µM)
CC(C)(C)c1ccc(-c2ncnc3c(CN)cccc23)cc1 [Example 14]	64 (≈ 220 µM)	32 (≈ 110 µM)
Cc1cccc(-c2nc3ccccc3nc2NCCN)c1 [Example 15]	> 64	> 64
CC(C)(C)c1ccc(-c2cccc3c(CNC(=N)N)ncnc23)cc1 [Example 16]	64 (≈ 192 µM)	8 (≈ 24 µM)
CC(C)(C)c1ccc(-c2ccnc3c(CNC(=N)N)ccnc23)cc1 [Example 17]	8 (≈ 24 µM)	4 (≈ 12 µM)
CC(C)(C)c1ccc(-c2ccnc3c(CN)ccnc23)cc1 [Example 18]	> 64	> 64
CC(C)(C)c1ccc(-c2nnc(CNC(=N)N)c3ccccc23)cc1 [Example 19]	–	16 (≈ 48 µM)
CC(C)(C)c1cccc(-c2nc(CNC(=N)N)c3ccccc3n2)c1 [Example 20]	–	4 (≈ 12 µM)
CC(C)(C)c1cccc(-c2cnc3cccc(CNC(=N)N)c3n2)c1 [Example 21]	2 (≈ 6 µM)	2 (≈ 6 µM)
CC(C)(C)c1cccc(-c2cnc3cc(CNC(=N)N)ccc3n2)c1 [Example 22]	8 (≈ 24 µM)	4 (≈ 12 µM)
